In ChEMBL document CHEMBL5236603, “Discovery of mobocertinib, a potent, oral inhibitor of EGFR exon 20 insertion mutations in non-small cell lung cancer” (Bioorg Med Chem Lett, 2023):
pIC50: −log10 of the molar value.

Key:
[1] = molecular target: Tyrosine-protein kinase Blk (Homo sapiens) (UniProt P51451); assay: Inhibition of human BLK at 1 uM by hotspot assay relative to control
[2] = Inhibition of mouse EGFR common activating deletion mutant stably expressed in mouse BaF3 cells assessed as cell viability incubated for 3 days by Cell Titer-Glo assay; type: cell-based; conditions: BaF3, 72 h
[3] = Cmax in CD-1 mouse at 10 mg/kg, po by LC/MS/MS analysis; type: ADME, organism-based; design: dose 10 mg/kg, route po; conditions: in vivo
[4] = Inhibition of mouse EGFR V769_D770insASV mutant stably expressed in mouse BaF3 cells assessed as cell viability incubated for 3 days by Cell Titer-Glo assay; type: cell-based; conditions: BaF3, 72 h
BaF3 [5] = assay: Anticancer activity against parental mouse BaF3 cells assessed as cell viability incubated for 3 days by Cell Titer-Glo assay; type: functional, cell-based; conditions: BaF3, 72 h
[6] = AUClast in CD-1 rat at 10 mg/kg, po by LC/MS/MS analysis; type: ADME, organism-based; design: dose 10 mg/kg, route po; conditions: in vivo
BaF3 [7] = assay: In vivo antitumor activity against mouse BaF3 cells expressing EGFR exon 20 insertion (ex20ins) ASV implanted in SCID mouse assessed as tumor growth inhibition at 30 mg/kg, po administered for 7 consecutive days; type: functional; conditions: BaF3, 168 h, time 7 day, read-out: TGI
[8] = molecular target: Tyrosine-protein kinase BTK (Homo sapiens) (UniProt Q06187); assay: Inhibition of human BTK at 1 uM by hotspot assay relative to control
[9] = Inhibition of mouse EGFR D770_N771insNPG mutant stably expressed in mouse BaF3 cells assessed as cell viability incubated for 3 days by Cell Titer-Glo assay; type: cell-based; conditions: BaF3, 72 h
[10] = Inhibition of mouse EGFR del-T790M mutant stably expressed in mouse BaF3 cells assessed as cell viability incubated for 3 days by Cell Titer-Glo assay; type: cell-based; conditions: BaF3, 72 h
[11] = molecular target: T1, Tyrosine-protein kinase TXK (Homo sapiens) (UniProt P42681); assay: Inhibition of human TXK at 1 uM by hotspot assay relative to control
T1 sequence (whole entry): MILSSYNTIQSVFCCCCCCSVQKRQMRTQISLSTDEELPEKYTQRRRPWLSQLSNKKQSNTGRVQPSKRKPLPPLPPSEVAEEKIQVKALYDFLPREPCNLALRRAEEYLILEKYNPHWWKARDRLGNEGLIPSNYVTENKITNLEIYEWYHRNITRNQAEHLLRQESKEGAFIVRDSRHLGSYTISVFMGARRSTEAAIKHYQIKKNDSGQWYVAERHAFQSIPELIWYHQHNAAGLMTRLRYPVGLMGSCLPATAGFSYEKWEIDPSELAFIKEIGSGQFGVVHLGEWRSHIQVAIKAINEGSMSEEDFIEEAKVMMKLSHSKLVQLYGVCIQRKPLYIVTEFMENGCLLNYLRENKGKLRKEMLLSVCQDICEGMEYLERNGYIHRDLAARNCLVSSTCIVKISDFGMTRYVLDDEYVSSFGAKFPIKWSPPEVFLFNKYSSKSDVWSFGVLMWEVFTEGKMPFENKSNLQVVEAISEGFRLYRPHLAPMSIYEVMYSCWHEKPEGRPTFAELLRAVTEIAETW

[12] = molecular target: T2, Tyrosine-protein kinase ITK/TSK (Homo sapiens) (UniProt Q08881); assay: Inhibition of human ITK at 1 uM by hotspot assay relative to control
T2 sequence (whole entry): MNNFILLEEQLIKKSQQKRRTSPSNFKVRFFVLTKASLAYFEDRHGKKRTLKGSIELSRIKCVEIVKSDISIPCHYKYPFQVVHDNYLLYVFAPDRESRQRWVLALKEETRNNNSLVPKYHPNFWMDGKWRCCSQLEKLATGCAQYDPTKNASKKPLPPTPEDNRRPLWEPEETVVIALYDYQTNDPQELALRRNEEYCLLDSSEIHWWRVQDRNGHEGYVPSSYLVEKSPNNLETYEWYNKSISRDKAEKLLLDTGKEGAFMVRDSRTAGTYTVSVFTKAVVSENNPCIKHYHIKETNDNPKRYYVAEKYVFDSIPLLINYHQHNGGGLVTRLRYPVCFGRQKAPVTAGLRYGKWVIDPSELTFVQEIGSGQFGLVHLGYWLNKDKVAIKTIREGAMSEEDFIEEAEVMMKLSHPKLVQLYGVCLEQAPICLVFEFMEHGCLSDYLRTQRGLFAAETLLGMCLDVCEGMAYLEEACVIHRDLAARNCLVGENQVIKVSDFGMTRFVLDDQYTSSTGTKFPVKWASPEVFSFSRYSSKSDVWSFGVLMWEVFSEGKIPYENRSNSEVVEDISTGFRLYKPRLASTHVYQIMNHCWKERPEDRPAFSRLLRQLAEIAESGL

[13] = Inhibition of mouse EGFR L858R-T790M mutant stably expressed in mouse BaF3 cells assessed as cell viability incubated for 3 days by Cell Titer-Glo assay; type: cell-based; conditions: BaF3, 72 h
[14] = tested on: Tyrosine-protein kinase BTK (Homo sapiens), Q06187 [E41K]; assay: Inhibition of human BTK E41K mutant at 1 uM by hotspot assay relative to control
[15] = molecular target: Receptor tyrosine-protein kinase erbB-2 (Homo sapiens) (UniProt P04626); assay: Inhibition of human HER2 at 1 uM by hotspot assay relative to control
[16] = molecular target: Epidermal growth factor receptor (Homo sapiens, UniProt P00533); assay: Inhibition of […]-induced EGFR phosphorylation in human A549 cells pretreated for 2 hrs followed by EGF stimulation by immune assay; type: cell-based
[17] = Inhibition of mouse EGFR A767_V769dup V769_D770insASV (ASV) mutant stably expressed in mouse BaF3 cells assessed as cell viability incubated for 3 days by Cell Titer-Glo assay; type: cell-based; conditions: BaF3, 72 h
[18] = Cmax in CD-1 rat at 10 mg/kg, po by LC/MS/MS analysis; type: ADME, organism-based; design: dose 10 mg/kg, route po; conditions: in vivo
[19] = Inhibition of mouse EGFR S768_D770dup D770_N771insSVD (SVD) mutant stably expressed in mouse BaF3 cells assessed as cell viability incubated for 3 days by Cell Titer-Glo assay; type: cell-based; conditions: BaF3, 72 h

Sequence of Epidermal growth factor receptor (P00533 whole entry): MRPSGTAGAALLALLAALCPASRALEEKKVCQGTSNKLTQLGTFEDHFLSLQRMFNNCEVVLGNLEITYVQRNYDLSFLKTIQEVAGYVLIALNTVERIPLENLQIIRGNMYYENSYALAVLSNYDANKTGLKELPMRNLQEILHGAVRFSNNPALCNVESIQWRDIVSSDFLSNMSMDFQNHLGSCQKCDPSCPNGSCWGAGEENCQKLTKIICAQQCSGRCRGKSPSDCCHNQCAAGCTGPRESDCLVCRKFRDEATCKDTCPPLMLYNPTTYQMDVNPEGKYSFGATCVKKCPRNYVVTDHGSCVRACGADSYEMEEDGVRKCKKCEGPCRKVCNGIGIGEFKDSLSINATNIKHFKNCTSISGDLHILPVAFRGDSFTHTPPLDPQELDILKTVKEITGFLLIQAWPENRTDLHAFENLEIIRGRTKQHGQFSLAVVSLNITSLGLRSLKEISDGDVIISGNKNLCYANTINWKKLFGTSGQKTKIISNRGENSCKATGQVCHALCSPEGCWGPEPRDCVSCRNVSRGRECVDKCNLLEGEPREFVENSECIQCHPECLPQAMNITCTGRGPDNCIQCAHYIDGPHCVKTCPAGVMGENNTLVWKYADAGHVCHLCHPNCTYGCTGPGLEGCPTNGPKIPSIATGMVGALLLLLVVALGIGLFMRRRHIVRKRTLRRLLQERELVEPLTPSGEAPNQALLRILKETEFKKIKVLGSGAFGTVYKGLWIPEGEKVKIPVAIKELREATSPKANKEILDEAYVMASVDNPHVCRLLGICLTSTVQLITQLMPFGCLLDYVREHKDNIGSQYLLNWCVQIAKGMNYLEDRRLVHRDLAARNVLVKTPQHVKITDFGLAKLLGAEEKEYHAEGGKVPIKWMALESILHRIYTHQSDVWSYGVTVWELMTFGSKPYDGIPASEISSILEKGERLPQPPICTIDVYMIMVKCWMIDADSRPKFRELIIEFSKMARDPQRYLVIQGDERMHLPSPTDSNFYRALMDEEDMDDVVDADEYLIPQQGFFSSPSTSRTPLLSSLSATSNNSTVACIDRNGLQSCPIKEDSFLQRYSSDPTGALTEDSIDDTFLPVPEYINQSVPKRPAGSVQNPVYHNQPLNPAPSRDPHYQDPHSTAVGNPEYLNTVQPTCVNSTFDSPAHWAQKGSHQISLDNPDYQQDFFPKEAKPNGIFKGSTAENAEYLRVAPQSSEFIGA
Sequence of Tyrosine-protein kinase Blk (Homo sapiens) (P51451 2-505 limits assumed): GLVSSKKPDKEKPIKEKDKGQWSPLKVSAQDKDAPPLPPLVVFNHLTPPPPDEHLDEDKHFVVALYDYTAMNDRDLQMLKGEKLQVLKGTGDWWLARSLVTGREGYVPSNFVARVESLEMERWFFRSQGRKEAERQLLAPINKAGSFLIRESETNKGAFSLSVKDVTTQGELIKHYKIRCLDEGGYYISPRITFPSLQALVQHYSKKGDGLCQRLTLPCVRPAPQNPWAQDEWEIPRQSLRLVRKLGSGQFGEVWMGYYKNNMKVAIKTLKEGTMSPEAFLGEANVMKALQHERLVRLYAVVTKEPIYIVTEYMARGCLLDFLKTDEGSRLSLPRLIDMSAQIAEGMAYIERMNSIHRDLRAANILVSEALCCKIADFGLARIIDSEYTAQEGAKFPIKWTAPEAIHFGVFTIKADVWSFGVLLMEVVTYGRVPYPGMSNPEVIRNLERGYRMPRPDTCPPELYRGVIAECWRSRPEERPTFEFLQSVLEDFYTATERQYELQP
Sequence of Receptor tyrosine-protein kinase erbB-2 (Homo sapiens) (P04626 whole entry): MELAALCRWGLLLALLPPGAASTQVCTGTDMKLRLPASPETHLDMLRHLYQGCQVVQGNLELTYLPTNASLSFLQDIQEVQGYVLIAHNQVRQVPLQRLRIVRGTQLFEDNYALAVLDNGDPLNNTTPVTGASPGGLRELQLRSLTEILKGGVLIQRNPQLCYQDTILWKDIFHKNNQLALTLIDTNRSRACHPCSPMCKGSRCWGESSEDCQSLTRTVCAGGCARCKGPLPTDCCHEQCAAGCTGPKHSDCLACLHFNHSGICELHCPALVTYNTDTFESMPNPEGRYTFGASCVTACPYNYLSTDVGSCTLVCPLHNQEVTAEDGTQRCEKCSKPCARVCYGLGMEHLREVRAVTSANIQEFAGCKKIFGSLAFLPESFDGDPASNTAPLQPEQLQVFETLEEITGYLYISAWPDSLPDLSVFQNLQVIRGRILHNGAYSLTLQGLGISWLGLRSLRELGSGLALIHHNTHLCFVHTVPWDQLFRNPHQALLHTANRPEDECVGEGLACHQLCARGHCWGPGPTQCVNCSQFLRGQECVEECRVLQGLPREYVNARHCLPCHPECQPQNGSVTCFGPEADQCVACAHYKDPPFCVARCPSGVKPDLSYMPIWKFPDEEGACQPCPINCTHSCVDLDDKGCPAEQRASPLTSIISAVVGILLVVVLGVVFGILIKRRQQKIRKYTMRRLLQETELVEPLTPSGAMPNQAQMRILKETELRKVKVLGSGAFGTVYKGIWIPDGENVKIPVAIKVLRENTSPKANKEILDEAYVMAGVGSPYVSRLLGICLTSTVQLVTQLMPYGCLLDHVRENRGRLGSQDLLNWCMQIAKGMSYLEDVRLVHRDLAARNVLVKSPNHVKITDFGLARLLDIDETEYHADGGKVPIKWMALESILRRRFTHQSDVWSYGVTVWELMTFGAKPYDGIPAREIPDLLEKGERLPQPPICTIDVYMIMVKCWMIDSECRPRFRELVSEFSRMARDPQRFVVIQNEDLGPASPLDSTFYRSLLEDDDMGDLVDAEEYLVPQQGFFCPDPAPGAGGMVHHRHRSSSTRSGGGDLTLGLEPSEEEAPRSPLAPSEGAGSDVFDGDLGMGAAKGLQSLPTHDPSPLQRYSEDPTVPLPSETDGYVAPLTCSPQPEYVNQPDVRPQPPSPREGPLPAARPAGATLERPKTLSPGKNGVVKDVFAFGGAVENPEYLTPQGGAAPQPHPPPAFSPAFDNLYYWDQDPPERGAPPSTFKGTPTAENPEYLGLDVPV
Sequence of Tyrosine-protein kinase BTK (Homo sapiens), Q06187 [E41K] (Q06187 whole entry E41K): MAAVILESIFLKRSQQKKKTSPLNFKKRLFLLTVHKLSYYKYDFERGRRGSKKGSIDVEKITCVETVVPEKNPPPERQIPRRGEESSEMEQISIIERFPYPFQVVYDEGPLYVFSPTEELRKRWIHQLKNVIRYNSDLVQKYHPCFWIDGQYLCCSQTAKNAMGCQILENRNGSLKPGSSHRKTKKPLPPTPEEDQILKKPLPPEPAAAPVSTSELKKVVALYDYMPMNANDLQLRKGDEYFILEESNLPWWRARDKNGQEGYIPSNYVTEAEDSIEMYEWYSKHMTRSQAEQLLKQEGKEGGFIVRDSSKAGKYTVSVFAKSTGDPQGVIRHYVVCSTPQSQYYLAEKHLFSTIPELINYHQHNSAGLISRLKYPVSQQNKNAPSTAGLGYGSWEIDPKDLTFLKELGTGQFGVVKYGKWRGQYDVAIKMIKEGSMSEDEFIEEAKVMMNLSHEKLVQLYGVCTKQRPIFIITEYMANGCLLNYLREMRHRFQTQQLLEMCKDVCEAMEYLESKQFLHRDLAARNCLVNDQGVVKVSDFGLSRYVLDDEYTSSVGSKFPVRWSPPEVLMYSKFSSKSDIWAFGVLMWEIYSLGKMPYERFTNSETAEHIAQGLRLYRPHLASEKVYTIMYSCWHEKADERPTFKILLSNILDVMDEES
Sequence of Tyrosine-protein kinase BTK (Homo sapiens) (Q06187 whole entry): as the sequence (Q06187 whole entry E41K) above, with K41E counted along it

inhibition [1]: > 81%
Cmax [3]: 82 ng/mL
AUC(0-t) [6]: 1780 ng·h/mL
inhibition [8]: > 81%
inhibition [11]: > 81%
inhibition [12]: > 81%
inhibition [14]: > 81%
inhibition [15]: > 97%
pIC50 [16]: 7.51
Cmax [18]: 143 ng/mL
Structure (SMILES): C=CC(=O)Nc1cc(Nc2ncc(C(=O)OC(C)C)c(-c3cn(C)c4ccccc34)n2)c(OC)cc1N(C)CCN(C)C [MOBOCERTINIB]
pIC50 [2]: 8.57
pIC50 [4]: 7.96
pIC50 (BaF3 [5]): 5.40
inhibition in vivo at 30 mg/kg (BaF3 [7]): 77%
pIC50 [9]: 8.40
pIC50 [10]: 8.20
pIC50 [13]: 7.67
pIC50 [17]: 7.96
pIC50 [19]: 7.65
